# Source: ChEMBL document CHEMBL1129889, “Design and synthesis of novel nonpeptide CCK-B receptor antagonists” (Bioorg Med Chem Lett, 1997)
# Target: T1, Gastrin/cholecystokinin type B receptor (Mus musculus, UniProt P56481)
# T1 sequence (P56481 whole entry): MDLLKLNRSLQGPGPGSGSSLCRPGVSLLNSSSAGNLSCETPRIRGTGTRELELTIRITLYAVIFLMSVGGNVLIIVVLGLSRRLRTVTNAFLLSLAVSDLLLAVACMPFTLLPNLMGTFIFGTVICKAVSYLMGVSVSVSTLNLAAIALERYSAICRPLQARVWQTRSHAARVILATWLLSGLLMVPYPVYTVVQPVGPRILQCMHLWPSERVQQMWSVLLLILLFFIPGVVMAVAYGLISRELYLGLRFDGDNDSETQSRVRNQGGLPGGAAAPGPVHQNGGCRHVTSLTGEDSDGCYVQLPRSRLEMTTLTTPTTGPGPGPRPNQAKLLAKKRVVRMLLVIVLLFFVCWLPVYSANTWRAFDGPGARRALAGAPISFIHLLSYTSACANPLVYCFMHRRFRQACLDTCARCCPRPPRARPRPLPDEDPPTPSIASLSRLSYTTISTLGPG
# Assay: Inhibition of [125 I]CCK-8 binding to Cholecystokinin type B receptor of mouse cerebral cortex
# Type: tissue-based
row,Compound,IC50
1,CC(C)Oc1cccc(-n2c(CNC(=S)Nc3ccc(Br)cc3)nc3ccccc3c2=O)c1,8020 nM
2,CC(C)Oc1cccc(-n2c(CNC(=O)Nc3ccc(C(F)(F)F)cc3)nc3ccccc3c2=O)c1,691 nM
3,CC(C)Oc1cccc(-n2c(CCNC(=O)Nc3ccc(Br)cc3)nc3ccccc3c2=O)c1,585 nM
4,CC(C)Oc1cccc(-n2c(CNC(=O)Nc3ccc(Br)cc3)nc3ccccc3c2=O)c1,137 nM
5,Cc1ccc(S(=O)(=O)NC(=O)NCc2nc3ccccc3c(=O)n2-c2cccc(OC(C)C)c2)cc1,> 1000 nM
6,CC(C)Oc1cccc(-n2c(NC(=O)Nc3ccc(Br)cc3)nc3ccccc3c2=O)c1,> 1000 nM
7,CCOC(=O)c1cccc(NC(=O)NCc2nc3ccccc3c(=O)n2-c2cccc(OC(C)C)c2)c1,126 nM
8,Cc1cccc(NC(=O)NCc2nc3ccccc3c(=O)n2-c2cccc(OC(C)C)c2)c1,879 nM
9,CC(C)Oc1cccc(-n2c(CNC(=O)Nc3ccc([N+](=O)[O-])cc3)nc3ccccc3c2=O)c1,212 nM
10,CC(C)Oc1cccc(-n2c(CNC(=O)NCc3ccc(Br)cc3)nc3ccccc3c2=O)c1,652 nM

# Target: T2, Gastrin/cholecystokinin type B receptor (Mus musculus) (UniProt P56481)
# T2 sequence (whole entry): T1 sequence (P56481 whole entry)
# Assay: Binding activity
row,Compound,Ke
1,CC(C)Oc1cccc(-n2c(CNC(=O)Nc3ccc(Br)cc3)nc3ccccc3c2=O)c1,1300 nM
2,CCOC(=O)c1cccc(NC(=O)NCc2nc3ccccc3c(=O)n2-c2cccc(OC(C)C)c2)c1,230 nM

# Target: T3, Cholecystokinin receptor type A (Rattus norvegicus, UniProt P30551)
# T3 sequence (P30551 whole entry): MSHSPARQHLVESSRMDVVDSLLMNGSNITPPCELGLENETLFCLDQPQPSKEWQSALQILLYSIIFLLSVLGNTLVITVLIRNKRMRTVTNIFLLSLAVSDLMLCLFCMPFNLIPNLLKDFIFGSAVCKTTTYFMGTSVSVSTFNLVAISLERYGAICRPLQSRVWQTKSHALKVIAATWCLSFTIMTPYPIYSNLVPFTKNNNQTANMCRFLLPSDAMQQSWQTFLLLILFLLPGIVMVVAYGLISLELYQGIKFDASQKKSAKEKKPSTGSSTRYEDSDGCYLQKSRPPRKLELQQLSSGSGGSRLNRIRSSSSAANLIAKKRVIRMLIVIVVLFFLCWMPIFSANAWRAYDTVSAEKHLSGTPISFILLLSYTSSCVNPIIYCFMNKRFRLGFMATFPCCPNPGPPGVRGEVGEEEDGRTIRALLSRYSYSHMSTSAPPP
# Assay: Inhibition of specific binding of [125 I] Bolton Hunter CCK-8 to Cholecystokinin type A receptor in the rat pancreas
row,Compound,IC50
1,CC(C)Oc1cccc(-n2c(CNC(=S)Nc3ccc(Br)cc3)nc3ccccc3c2=O)c1,6930 nM
2,CC(C)Oc1cccc(-n2c(CNC(=O)Nc3ccc(C(F)(F)F)cc3)nc3ccccc3c2=O)c1,674 nM
3,CC(C)Oc1cccc(-n2c(CCNC(=O)Nc3ccc(Br)cc3)nc3ccccc3c2=O)c1,1630 nM
4,CC(C)Oc1cccc(-n2c(CNC(=O)Nc3ccc(Br)cc3)nc3ccccc3c2=O)c1,984 nM
5,Cc1ccc(S(=O)(=O)NC(=O)NCc2nc3ccccc3c(=O)n2-c2cccc(OC(C)C)c2)cc1,> 1000 nM
6,CC(C)Oc1cccc(-n2c(NC(=O)Nc3ccc(Br)cc3)nc3ccccc3c2=O)c1,> 1000 nM
7,CCOC(=O)c1cccc(NC(=O)NCc2nc3ccccc3c(=O)n2-c2cccc(OC(C)C)c2)c1,1470 nM
8,Cc1cccc(NC(=O)NCc2nc3ccccc3c(=O)n2-c2cccc(OC(C)C)c2)c1,1640 nM
9,CC(C)Oc1cccc(-n2c(CNC(=O)Nc3ccc([N+](=O)[O-])cc3)nc3ccccc3c2=O)c1,385 nM
10,CC(C)Oc1cccc(-n2c(CNC(=O)NCc3ccc(Br)cc3)nc3ccccc3c2=O)c1,3100 nM
